Experimental data reported in the Kinase Knowledgebase extract (Sharma et al. 2016).

Target: CDK2 (human) (UniProt P24941)
Assay: Enzyme Assay

| Compound | Ki [nM] |
| --- | --- |
| C[S+](C)[O-].Cc1c(N)cncc1-c1ccc2[nH]nc(-c3nc(-c4ccccc4)c[nH]3)c2c1 | < 50 |
| CCNCc1cncc(-c2ccc3[nH]nc(-c4ncc(C(=O)N5CCCCCC5)[nH]4)c3c2)c1C | < 50 |
| CCNCc1cncc(-c2ccc3[nH]nc(-c4nc(-c5ccc(F)cc5)c[nH]4)c3c2)c1C | < 50 |
| CCNCc1cncc(-c2ccc3[nH]nc(-c4nc(-c5ccc(OC)cc5)c[nH]4)c3c2)c1C | < 50 |
| CCNCc1cncc(-c2ccc3[nH]nc(-c4ncc(C(=O)NCc5ccccn5)[nH]4)c3c2)c1C | < 50 |
| CCNCc1cncc(-c2ccc3[nH]nc(-c4ncc(C(=O)N5CCCCC5)[nH]4)c3c2)c1C | < 50 |
| CCNCc1cncc(-c2ccc3[nH]nc(-c4ncc(C(=O)N5CCN(C)CC5)[nH]4)c3c2)c1C | < 50 |
| CCNCc1cncc(-c2ccc3[nH]nc(-c4ncc(C(=O)N[C@@H]5CCc6ccccc65)[nH]4)c3c2)c1C | < 50 |
| CCNCc1cncc(-c2ccc3[nH]nc(-c4ncc(C(=O)N5CCCC(Cc6ncccn6)CC5)[nH]4)c3c2)c1C (stereo not drawn) | < 50 |
| CCNCc1cncc(-c2ccc3[nH]nc(-c4nc(-c5ccc(Cl)cc5)c(C)[nH]4)c3c2)c1C | < 50 |
| CCNCc1cncc(-c2ccc3[nH]nc(-c4nc(-c5cc(Cl)cc(Cl)c5)c(C)[nH]4)c3c2)c1C | < 50 |
| Cc1c(CNC(C)C)cncc1-c1ccc2[nH]nc(-c3ncc[nH]3)c2c1 | < 50 |
| CC(C)(C)O.Cc1c(N)cncc1-c1ccc2[nH]nc(-c3nc(-c4ccc(F)cc4)c[nH]3)c2c1 | < 50 |
| CCNCc1cncc(-c2ccc3[nH]nc(-c4ncc(C(=O)NCCOC)[nH]4)c3c2)c1C | < 50 |
| CCNCc1cncc(-c2ccc3[nH]nc(-c4ncc(C(=O)N5CCN(c6ccc(F)cc6F)CC5)[nH]4)c3c2)c1C | < 50 |
| CCNCc1cncc(-c2ccc3[nH]nc(-c4nc(C(=O)NCc5cccnc5)c[nH]4)c3c2)c1C | < 50 |
| CCNCc1cncc(-c2ccc3[nH]nc(-c4cnc[nH]4)c3c2)c1C | < 50 |
| c1c[nH]c(-c2n[nH]c3ccc(-c4cncc5[nH]ccc45)cc23)n1 | < 50 |
| CCNCc1cncc(-c2ccc3[nH]nc(-c4nc(-c5cccc(OC)c5)c[nH]4)c3c2)c1C | < 50 |
| CCNCc1cncc(-c2ccc3[nH]nc(-c4ncc(C(=O)NC(C)C)[nH]4)c3c2)c1C | < 50 |
| CCNCc1cncc(-c2ccc3[nH]nc(-c4nc(-c5ccccc5)c[nH]4)c3c2)c1C | < 50 |
| Cc1c(N)cncc1-c1ccc2[nH]nc(-c3nc(-c4cccc(F)c4)c[nH]3)c2c1 | < 50 |
| CCNCc1cncc(-c2ccc3[nH]nc(-c4ncc(C(=O)N5Cc6ccccc6C5)[nH]4)c3c2)c1C | < 50 |

| Compound | Ki [nM] |
| --- | --- |
| CCNCc1cncc(-c2ccc3[nH]nc(-c4ncc(C(=O)N5CCOCC5)[nH]4)c3c2)c1C | < 50 |
| CCCCCC.CCNCc1cncc(-c2ccc3[nH]nc(-c4nc(C)c(C)[nH]4)c3c2)c1C | < 50 |
| CCNCc1cncc(-c2ccc3[nH]nc(-c4ncc(C(=O)N5CCC(Oc6ccccc6)CC5)[nH]4)c3c2)c1C | < 50 |
| CCNCc1cncc(-c2ccc3[nH]nc(-c4ncc(C(=O)N5CCC(Cc6ncccn6)CC5)[nH]4)c3c2)c1C | < 50 |
| CCNCc1cncc(-c2ccc3[nH]nc(-c4nc(CC(C)C)c(C)[nH]4)c3c2)c1C | < 50 |
| CCNCc1cncc(-c2ccc3[nH]nc(-c4ncc(C(=O)N[C@H]5CCc6ccccc65)[nH]4)c3c2)c1C | < 50 |
| CCNCc1cncc(-c2ccc3[nH]nc(-c4nc(C)c[nH]4)c3c2)c1C | < 50 |
| Cc1c(N)cncc1-c1ccc2[nH]nc(-c3nc4c([nH]3)CCCC4)c2c1 | < 50 |
| CCNCc1cncc(-c2ccc3[nH]nc(-c4ncc(C(=O)N5CCN(c6ccccc6)CC5)[nH]4)c3c2)c1C | < 50 |
| CCNCc1cncc(-c2ccc3[nH]nc(-c4ncc(C(=O)N5CCN(CCOC)CC5)[nH]4)c3c2)c1C | < 50 |
| CCNCc1cncc(-c2ccc3[nH]nc(-c4ncc(C(=O)N(C)C5CCN(Cc6ccccc6)C5)[nH]4)c3c2)c1C (stereo not drawn) | < 50 |
| CCNCc1cncc(-c2ccc3[nH]nc(-c4ncc(C(=O)N5CCN(Cc6ccccn6)CC5)[nH]4)c3c2)c1C | < 50 |
| CCNCc1cncc(-c2ccc3[nH]nc(-c4ncc(C(=O)NCCC5=CCCCC5)[nH]4)c3c2)c1C | < 50 |
| c1ncc(-c2n[nH]c3ccc(-c4cncc5[nH]ccc45)cc23)[nH]1 | < 50 |
| CCNCc1cncc(-c2ccc3[nH]nc(-c4nc(-c5ccc(C(F)(F)F)cc5)c(C)[nH]4)c3c2)c1C | < 50 |
| CCNCc1cncc(-c2ccc3[nH]nc(-c4ncc(C(=O)N5CCC6CCCCC6C5)[nH]4)c3c2)c1C (stereo not drawn) | < 50 |
| CCNCc1cncc(-c2ccc3[nH]nc(-c4nc(-c5ccccc5)c(C)[nH]4)c3c2)c1C | < 50 |
| C1CCCCC1.COCc1cncc(-c2ccc3[nH]nc(-c4nc5c([nH]4)CCCC5)c3c2)c1C | < 50 |
| CCNCc1cncc(-c2ccc3[nH]nc(-c4ncc[nH]4)c3c2)c1CC | < 50 |
| CCNCc1cncc(-c2ccc3[nH]nc(-c4nc(C(=O)NC5CCCCC5)c[nH]4)c3c2)c1C | < 50 |
| CCNCc1cncc(-c2ccc3[nH]nc(-c4nc5c([nH]4)CCCC5)c3c2)c1C | < 50 |
| CCNCc1cncc(-c2ccc3[nH]nc(-c4ncc[nH]4)c3c2)c1C | < 50 |
| CCNCc1cncc(-c2ccc3[nH]nc(-c4nc(-c5cccc(C(F)(F)F)c5)c(C)[nH]4)c3c2)c1C | < 50 |

| Compound | Ki [nM] |
| --- | --- |
| CCNCc1cncc(-c2ccc3[nH]nc(-c4nc(-c5cccc(F)c5)c[nH]4)c3c2)c1C | < 50 |
| CCNCc1cncc(-c2ccc3[nH]nc(-c4nc(CC)c(CC)[nH]4)c3c2)c1C | < 50 |
| CCNCc1cncc(-c2ccc3[nH]nc(-c4ncc(C(=O)N[C@H]5CCCCNC5=O)[nH]4)c3c2)c1C | < 50 |
| CCNCc1cncc(-c2ccc3[nH]nc(-c4cc(C)n[nH]4)c3c2)c1C | < 50 |
| CCNCc1cncc(-c2ccc3[nH]nc(-c4ncc(C(=O)NCC)[nH]4)c3c2)c1C | < 50 |
| CNCc1cncc(-c2ccc3[nH]nc(-c4ncc[nH]4)c3c2)c1C | < 50 |
| CCNCc1cncc(-c2ccc3[nH]nc(-c4ncc(C(=O)N5CCCC5)[nH]4)c3c2)c1C | < 50 |
| CNCc1cncc(-c2ccc3[nH]nc(-c4nc(C)c[nH]4)c3c2)c1C | < 50 |
| CCNCc1cncc(-c2ccc3[nH]nc(-c4ncc(C(=O)NC5CCCC5)[nH]4)c3c2)c1C | < 50 |
| CCNCc1cncc(-c2ccc3[nH]nc(-c4nc(-c5ccccc5)c(C(=O)NCc5ccccc5)[nH]4)c3c2)c1C | < 50 |
| CCNCc1cncc(-c2ccc3[nH]nc(-c4ncc(C(=O)N5CCN(Cc6ccccc6)CC5)[nH]4)c3c2)c1C | < 50 |
| CCNCc1cncc(-c2ccc3[nH]nc(-c4ncc(C(=O)N5CC=C(c6ccccc6)CC5)[nH]4)c3c2)c1C | < 50 |
| CCNCc1cncc(-c2ccc3[nH]nc(-c4ncc(C(=O)N(CCN(C)C)Cc5ccccc5)[nH]4)c3c2)c1C | < 50 |
| CCNCc1cncc(-c2ccc3[nH]nc(-c4ncc(C(=O)NC5C6CC7CC(C6)CC5C7)[nH]4)c3c2)c1C (stereo not drawn) | < 50 |
| CCNCc1cncc(-c2ccc3[nH]nc(-c4nc(-c5ccc(OC)c(OC)c5)c[nH]4)c3c2)c1C | < 50 |
| CCNCc1cncc(-c2ccc3[nH]nc(-c4ncc(C(=O)NCCN(C)C)[nH]4)c3c2)c1C | < 50 |
| CCCCCC.CCNCc1cncc(-c2ccc3[nH]nc(-c4nc(CC)c(C)[nH]4)c3c2)c1C | < 50 |
| CCc1nc(-c2n[nH]c3ccc(-c4cncc(N)c4C)cc23)[nH]c1CC | < 50 |
| CCNCc1cncc(-c2ccc3[nH]nc(-c4nc5c([nH]4)CCCC5)c3c2)c1CC | < 50 |
| CCNCc1cncc(-c2ccc3[nH]nc(-c4ncc(C(=O)N(CC)CC)[nH]4)c3c2)c1C | < 50 |
| CCNCc1cncc(-c2ccc3[nH]nc(-c4ncc(C(=O)N5C[C@@H](C)O[C@@H](C)C5)[nH]4)c3c2)c1C | < 50 |
| CCCc1nc(-c2n[nH]c3ccc(-c4cncc(CNCC)c4C)cc23)[nH]c1C | < 50 |
